In patent US8536202B2, “Triazole-substituted anthranilamides as pesticides” (Bayer Cropscience AG, priority 2010, dated 2013):

Tests used:
adult Musca domestica = test: Musca domestica test (MUSCDO); type: in vivo; settings: 48 h, read-out: kill in %
Procedure: (§1) Solvent: dimethyl sulphoxide
An appropriate preparation of active compound is prepared by mixing 10 mg of active compound with 0.5 ml of dimethyl sulphoxide and diluting the concentrate with water to the desired concentration. Vessels containing a sponge treated with the preparation of active compound at the desired concentration are populated with adult Musca domestica.
After 2 days, the kill in % is ascertained. Here, 100% means that all of the flies have been killed; 0% means that no flies have been killed.

Boophilus microplus = Boophilus microplus test (BOOPMI injection); type: in vivo; settings: Rhipicephalus microplus, 168 h, 20 μg/animal, after 7 days, read-out: activity in % (no fertile eggs laid)
Procedure: as §1
An appropriate preparation of active compound is prepared by mixing 10 mg of active compound with 0.5 ml of solvent and diluting the concentrate with solvent to the desired concentration. The solution of active compound is injected into the abdomen (Boophilus microplus), and the animals are transferred to dishes and kept in a climatized room. Activity is assessed by deposition of fertile eggs.
After 7 days, the activity in % is assessed. Here, 100% means that none of the ticks has laid fertile eggs.

[1] = test system: caterpillars of the armyworm (Spodoptera frugiperda); test: Spodoptera frugiperda test (SPODFR spray treatment); type: in vivo; settings: 168 h, 100 g/ha, after 7 days, read-out: activity in %
Method in brief: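 Maize leaf discs sprayed with compound diluted in emulsifier-containing water (acetone/DMF solvent, alkylaryl polyglycol ether emulsifier), dried, then infested with armyworm caterpillars. Kill scored after 7 days as % mortality, 100% = all caterpillars dead, 0% = none.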

[2] = test system: larvae of the mustard beetle (Phaedon cochleariae); test: Phaedon test (PHAECO spray treatment); type: in vivo; settings: 168 h, 100 g/ha, after 7 days, read-out: activity in %
Method in brief: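 Compound dissolved in acetone/dimethylformamide with alkylaryl polyglycol ether emulsifier, then diluted with emulsifier-containing water to test concentration for spray treatment of Phaedon cochleariae larvae. Activity scored after 7 days as % larvae killed (100% = all dead, 0% = none).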

Lucilia cuprina larvae = test: Lucilia cuprina test (LUCICU); type: in vivo; settings: 48 h, read-out: kill in %
Procedure: as §1
An appropriate preparation of active compound is prepared by mixing 10 mg of active compound with 0.5 ml of dimethyl sulphoxide and diluting the concentrate with water to the desired concentration.
Vessels containing horse meat treated with the preparation of active compound at the desired concentration are populated with approximately 20 Lucilia cuprina larvae.
After 2 days, the kill in % is ascertained. Here, 100% means that all of the larvae have been killed; 0% means that no larvae have been killed.

[3] = log P determination by HPLC on reversed-phase columns (EEC Directive 79/831 Annex V.A8); type: physicochemical; settings: pH 2.7
Method in brief: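 log P from reversed-phase LC-MS retention at pH 2.7, 0.1% formic acid water/acetonitrile gradient 10–95% acetonitrile. Calibrated against C3–C16 unbranched alkan-2-ones, interpolating linearly between adjacent alkanones.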

[4] = test system: green peach aphid (Myzus persicae); test: Myzus test (MYZUPE spray treatment), Use Example 4; type: in vivo; settings: 144 h, 100 g/ha, after 6 days, read-out: activity in %
Method in brief: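 Compound was formulated in acetone/dimethylformamide with alkylaryl polyglycol ether emulsifier and diluted in emulsifier-containing water. It was sprayed onto Chinese cabbage leaf discs infested with all stages of Myzus persicae. Mortality (%) was scored after 6 days, where 100% means all aphids killed.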

Row | SMILES | pest or weed control at 100 ppm (adult Musca domestica) | pest or weed control at 0.02 mg (Boophilus microplus) | pest or weed control at 100 g/ha [1] | pest or weed control at 100 g/ha [2] | pest or weed control at 100 ppm (Lucilia cuprina larvae) | chromatographic logP [3] | pest or weed control at 100 g/ha [4]
1 | CNC(=O)c1cc(C#N)cc(C)c1NC(=O)c1cc(Cn2ncc(C(F)(F)F)n2)nn1-c1ncccc1Cl [Example 124] | 80% | 100% | 100% | 100% | 100% | 2.68 | 100%
2 | Cc1cc(C#N)cc(C(=O)NC(C)C)c1NC(=O)c1cc(Cn2ncc(C(F)(F)F)n2)nn1-c1ncccc1Cl [Example 128] | 80% | 100% | 100% | 100% | 100% | 3.1 | 100%
3 | Cc1cc(C#N)cc(C(=O)NC(C)(C)C)c1NC(=O)c1cc(Cn2ncc(C(F)(F)F)n2)nn1-c1ncccc1Cl [Example 129] | 80% | 100% | 100% | 100% | 100% | 3.46 | 100%
4 | Cc1cc(Cl)cc(C(N)=O)c1NC(=O)c1cc(Cn2ncc(C(F)(F)F)n2)nn1-c1ncccc1Cl [Example 134] | 100% | 100% | 100% | 100% | 100% | 2.7 | 100%
5 | CNC(=O)c1cc(Br)cc(C)c1NC(=O)c1cc(Cn2ncc(C(F)(F)F)n2)nn1-c1ncccc1Cl [Example 172] | 80% | 100% | 100% | 100% | 100% | 3.1 | 100%
6 | Cc1cc(Cl)cc(C(N)=O)c1NC(=O)c1cc(Cn2cc(C(F)(C(F)(F)F)C(F)(F)F)nn2)nn1-c1ncccc1Cl [Example 231] | 80% | 100% | 100% | 100% | 100% | 3.16 | 100%
7 | Cc1cc(Cl)cc(C(=O)NC2CC2)c1NC(=O)c1cc(Cn2cc(C(F)(C(F)(F)F)C(F)(F)F)nn2)nn1-c1ncccc1Cl [Example 232] | 100% | 100% | 100% | 100% | 100% | 3.61 | 80%
8 | Cc1cc(I)cc(C(N)=O)c1NC(=O)c1cc(Cn2cc(C(F)(C(F)(F)F)C(F)(F)F)nn2)nn1-c1ncccc1Cl [Example 239] | 100% | 100% | 100% | 100% | 100% | 3.35 | 100%
9 | CNC(=O)c1cc(Cl)cc(Cl)c1NC(=O)c1cc(Cn2cc(C(F)(C(F)(F)F)C(F)(F)F)nn2)nn1-c1ncccc1Cl [Example 241] | 80% | 100% | 100% | 100% | 100% | 3.31 | 100%
10 | NC(=O)c1cc(Cl)cc(Cl)c1NC(=O)c1cc(Cn2cc(C(F)(C(F)(F)F)C(F)(F)F)nn2)nn1-c1ncccc1Cl [Example 247] | 100% | 100% | 100% | 100% | 100% | 3.13 | –
